From patent publication US6228868A, “Oxazoline antiproliferative agents” (Abbott Laboratories, priority 1999, dated 2001)

Legend:
NCI-H460 cells = assay: 48-hour cellular proliferation assay, sulforhodamine stain (human lung large cell carcinoma, MDR negative); format: cell-based; conditions: for NCI-460 (% Inhibition at 10^-4 M) / inhibition at 100 µM: NCI-460 cells, 10^-4 M; for IC50: NCI-H460 cells
Experimental: (§1) Compounds of this invention were tested in a 48-hour cellular proliferation assay that uses human colon adenocarcinoma, MDR positive (HCT-15) cells, and human lung large cell carcinoma, MDR negative (NCI-H460) cells, in the 96-well microtitre format described in Skehan P., et al. New Colorimetric Cytotoxicity Assay for Anticancer Drug Screening. 1990, J. Natl. Cancer Inst. 82:1107-1112, hereby incorporated by reference. Briefly, the wells of a microtitre plate were charged sequentially with cultured cells and compounds of the invention (1.0×10^-4 to 1.0×10^-11 M in 10% DMSO prepared by dissolving compounds of the invention in DMSO and adding 11 μL of the DMSO solution to 100 μL of culture medium for a final DMSO concentration of 10%). Two of the following controls were also present in each microtitre plate: a solvent (DMSO) control without drug that yielded a 0% inhibition level and a trichloroacetic acid-treated well that yielded a 100% inhibition level. The cells were grown in culture (37° C., 5% CO2 atmosphere) for 48 hours then fixed by the addition of trichloroacetic acid. The wells were stained with sulforhodamine, washed with 1% acetic acid, and treated with 0.01 M tris buffer (100 μL) to solubilize the adherent dye. The absorbance of the dye solution was measured with a Molecular Devices SpectraMax340 plate reader. Percent inhibition and Inhibitory Concentrations (IC50) values were obtained by calculating the proportional response of the experimental values to the absorbance values of the controls.

HCT-15 cells = assay: 48-hour cellular proliferation assay, sulforhodamine stain (human colon adenocarcinoma, MDR positive); format: cell-based; conditions: for HCT-15 (% Inhibition at 10^-4 M) / inhibition at 100 µM: 10^-4 M
Experimental: as §1

[1] = Homo sapiens, values given in μM

| Compound | inhibition at 100 µM (NCI-H460 cells; Homo sapiens) [%] | inhibition at 100 µM (HCT-15 cells; Homo sapiens) [%] | other results |
| --- | --- | --- | --- |
| 2-(3-hydroxy-4-methoxyphenyl)-4-dimethyl-5-(3,4,5-trimethoxyphenyl)-Δ2,3-oxazoline [Example 13] |  |  | NCI-460 (% Inhibition at 10^-4 M) (NCI-H460 cells): 100%; HCT-15 (% Inhibition at 10^-4 M) (HCT-15 cells): 100% |
| COc1cc(C2CN=C(c3ccc(N(C)C)cc3)O2)cc(OC)c1OC (centres unmarked) [Example 1, 2-(4-dimethylaminophenyl)-5-(3,4,5-trimethoxyphenyl)-Δ2,3-oxazoline] | 100 | 100 |  |
| COc1ccc(C2=NCC(c3cc(OC)c(OC)c(OC)c3)O2)cc1O (centres unmarked) [Example 2, 2-(3-hydroxy-4-methoxyphenyl)-5-(3,4,5-trimethoxyphenyl)-Δ2,3-oxazoline] | 100 | 100 |  |
| COc1ccc(C2=NCC(c3cc(OC)c(OC)c(OC)c3)O2)cc1 (centres unmarked) [Example 3, 2-(4-methoxyphenyl)-5-(3,4,5-trimethoxyphenyl)-Δ2,3-oxazoline] | 100 | 100 |  |
| COc1cc(OC)cc(C2=NCC(c3cc(OC)c(OC)c(OC)c3)O2)c1 (centres unmarked) [Example 4, 2-(3,5-dimethoxyphenyl)-5-(3,4,5-trimethoxyphenyl)-Δ2,3-oxazoline] | 100 | 100 |  |
| COc1cc(C2CN=C(c3ccc4[nH]cc(C(C)=O)c4c3)O2)cc(OC)c1OC (centres unmarked) [Example 5, 2-(3-acetylindol-5-yl)-5-(3,4,5-trimethoxyphenyl)-Δ2,3-oxazoline] |  |  | NCI-460 (% Inhibition at 10^-4 M) (NCI-H460 cells): 100%; HCT-15 (% Inhibition at 10^-4 M) (HCT-15 cells): 100% |
| COc1cc(C2CN=C(c3ccc4c(ccn4C)c3)O2)cc(OC)c1OC (centres unmarked) [Example 6, 2-(1-methylindol-5-yl)-5-(3,4,5-trimethoxyphenyl)-Δ2,3-oxazoline] | 100 | 100 |  |
| COc1cc(C2CN=C(c3c[nH]c4ccccc34)O2)cc(OC)c1OC (centres unmarked) [Example 7, 2-(indol-3-yl)-5-(3,4,5-trimethoxyphenyl)-Δ2,3-oxazoline] | 100 | 100 |  |
| COc1cc(C2CN=C(c3cc4ccccc4[nH]3)O2)cc(OC)c1OC (centres unmarked) [Example 8, 2-(indol-2-yl)-5-(3,4,5-trimethoxyphenyl)-Δ2,3-oxazoline] | 100 | 100 |  |
| COCn1ccc2cc(C3=NCC(c4cc(OC)c(OC)c(OC)c4)O3)ccc21 (centres unmarked) [Example 9, 2-(1-methoxymethylindol-5-yl)-5-(3,4,5-trimethoxyphenyl)-Δ2,3-oxazoline] | 100 | 100 |  |
| COc1cc(C2=NCC(c3cc(OC)c(OC)c(OC)c3)O2)ccc1N (centres unmarked) [Example 10, 2-(4-amino-3-methoxyphenyl)-5-(3,4,5-trimethoxyphenyl)-Δ2,3-oxazoline] | 100 | 100 |  |
| COc1cc(C2CN=C(c3ccc4[nH]ccc4c3)O2)cc(OC)c1OC (centres unmarked) [Example 11, 2-(indol-5-yl)-5-(3,4,5-trimethoxyphenyl)-Δ2,3-oxazoline] | 100 | 100 |  |
| COc1cc(C2CN=C(c3ccc(N)c(C)c3)O2)cc(OC)c1OC (centres unmarked) [Example 12, 2-(4-amino-3-methylphenyl)-5-(3,4,5-trimethoxyphenyl)-Δ2,3-oxazoline] | 100 | 100 |  |
| COc1cc(C2CN=C(c3ccc4c(c3)CCCN4C)O2)cc(OC)c1OC (centres unmarked) [Example 14, 2-(N-methyl-tetrahydroquinol-6-yl)-5-(3,4,5-trimethoxyphenyl)-Δ2,3-oxazoline] | 100 | 100 |  |
| COc1cc(C2CN=C(C3CC3C)O2)cc(OC)c1OC (centres unmarked) [Example 15, 2-(2-methyl-cyclopropyl)-5-(3,4,5-trimethoxyphenyl)-Δ2,3-oxazoline] | 50 | 50 |  |
| CCOc1ccc(C2=NCC(c3cc(OC)c(OC)c(OC)c3)O2)cc1 (centres unmarked) [Example 16, 2-(4-ethoxyphenyl)-5-(3,4,5-trimethoxyphenyl)-Δ2,3-oxazoline] | 90.7 | 96.2 |  |
| COc1ccc(C2=NCC(c3cc(OC)c(OC)c(OC)c3)O2)cc1OC (centres unmarked) [Example 17, 2-(3,4-dimethoxyphenyl)-5-(3,4,5-trimethoxyphenyl)-Δ2,3-oxazoline] | 85.8 | 91 |  |
| COc1cc(C2=NCC(c3cc(OC)c(OC)c(OC)c3)O2)ccc1OCc1ccccc1 (centres unmarked) [Example 18, 2-(4-benzyloxy-3-methoxyphenyl)-5-(3,4,5-trimethoxyphenyl)-Δ2,3-oxazoline] | 92.2 | 96 |  |
| COc1cc(C2CN=C(c3cc(Br)cc4c3OCC4)O2)cc(OC)c1OC (centres unmarked) [Example 19, 2-(2,3-dihydro-5-bromo-7-benzofuranyl)-5-(3,4,5-trimethoxyphenyl)-Δ2,3-oxazoline] | 100 | 98.9 |  |

| Compound | inhibition at 100 µM (NCI-H460 cells; Homo sapiens) [%] | inhibition at 100 µM (HCT-15 cells; Homo sapiens) [%] | other results |
| --- | --- | --- | --- |
| COc1ccc(C2=NCC(c3cc(OC)c(OC)c(OC)c3)O2)cc1OC(C)=O (centres unmarked) [Example 20, 2-(3-acetoxy-4-methoxyphenyl)-5-(3,4,5-trimethoxyphenyl)-Δ2,3-oxazoline] | 100 | 91 |  |
| COc1cc(C2CN=C(c3ccc4c(c3)CCN4C)O2)cc(OC)c1OC (centres unmarked) [Example 21, 2-(1-methyl-2,3-dihydro-indol-5-yl)-5-(3,4,5-trimethoxyphenyl)-Δ2,3-oxazoline] | 92.4 | 100 |  |
| COc1cc(C2CN=C(c3ccc4cc[nH]c4c3)O2)cc(OC)c1OC (centres unmarked) [Example 27, 2-(6-indolyl)-5-(3,4,5-trimethoxyphenyl)-Δ2,3-oxazoline] |  |  | IC50 (NCI-H460 cells; Homo sapiens, values in nM): 170 nM; IC50 (HCT-15 cells; Homo sapiens, values in nM): 83 nM |
| COc1cc(C2CN=C(c3ccc4ccn(C)c4c3)O2)cc(OC)c1OC (centres unmarked) [Example 28, 2-(1-methylindol-6-yl)-5-(3 4.5-trimethoxyphenyl)-Δ2,3-oxazoline] |  |  | IC50 (NCI-H460 cells; Homo sapiens, values in nM): 390 nM; IC50 (HCT-15 cells; Homo sapiens, values in nM): 210 nM |
| COc1cc(C2CN=C(c3cccc4[nH]ccc34)O2)cc(OC)c1OC (centres unmarked) [Example 29, 2-(4-indolyl)-5-(3,4,5-trimethoxyphenyl)-Δ2,3-oxazoline] |  |  | IC50 (NCI-H460 cells; Homo sapiens, values in nM): 60 nM; IC50 (HCT-15 cells; Homo sapiens, values in nM): 39 nM |
| COc1cc(C2CN=C(c3cccc4c3ccn4C)O2)cc(OC)c1OC (centres unmarked) [Example 30, 2-(1-methylindol-4-yl)-5-(3,4,5-trimethoxyphenyl)-Δ2,3-oxazoline] |  |  | IC50 (NCI-H460 cells; Homo sapiens, values in nM): 28 nM; IC50 (HCT-15 cells; Homo sapiens, values in nM): 24 nM |
| COc1cc(C2CN=C(c3cccc4cc[nH]c34)O2)cc(OC)c1OC (centres unmarked) [Example 31, 2-(7-indolyl)-5-(3,4,5-trimethoxyphenyl)-Δ2,3-oxazoline] |  |  | IC50 (NCI-H460 cells; Homo sapiens, values in nM): 470 nM; IC50 (HCT-15 cells; Homo sapiens, values in nM): 580 nM |
| COc1cc(C2CN=C(c3cccc4ccn(C)c34)O2)cc(OC)c1OC (centres unmarked) [Example 32, 2-(1-methylindol-7-yl)-5-(3,4,5-trimethoxyphenyl)-Δ2,3-oxazoline] |  |  | IC50 (HCT-15 cells; [1]): 16000 nM |
| COc1cc(C2CN=C(c3cn(C)c4ccccc34)O2)cc(OC)c1OC (centres unmarked) [Example 33, 2-(1-methylindol-3-yl)-5-(3,4,5-trimethoxyphenyl)-Δ2,3-oxazoline] |  |  | IC50 (NCI-H460 cells; Homo sapiens, values in nM): 120 nM; IC50 (HCT-15 cells; Homo sapiens, values in nM): 32 nM |
| COc1cc(C2CN=C(c3cc4ccccc4n3C)O2)cc(OC)c1OC (centres unmarked) [Example 34, 2-(1-methyl-indol-2-yl)-5-(3,4,5-trimethoxyphenyl)-Δ2,3-oxazoline] |  |  | IC50 (NCI-H460 cells; Homo sapiens, values in nM): 1500 nM; IC50 (HCT-15 cells; Homo sapiens, values in nM): 650 nM |
| COc1cc(C2CN=C(c3ccc4ncccc4c3)O2)cc(OC)c1OC (centres unmarked) [Example 35, 2-(6-guinolinvl)-5-(3,4,5-trimethoxyphenyl)-Δ2,3-oxazoline] |  |  | IC50 (NCI-H460 cells; [1]): 3200 nM; IC50 (HCT-15 cells; [1]): 2400 nM |
| COc1cc(C2CN=C(c3ccnc4ccccc34)O2)cc(OC)c1OC (centres unmarked) [Example 37, 2-(4-quinolinyl)-5-(3,4,5-trimethoxyphenyl)-Δ2,3-oxazoline] |  |  | IC50 (NCI-H460 cells; [1]): 37000 nM; IC50 (HCT-15 cells; [1]): 44000 nM |
| COc1cc(C2CN=C(c3nccc4ccccc34)O2)cc(OC)c1OC (centres unmarked) [Example 38, 2-(1-isoquinolinyl)-5-(3,4,5-trimethoxyphenyl)-Δ2,3-oxazoline] |  |  | IC50 (NCI-H460 cells; [1]): 78000 nM; IC50 (HCT-15 cells; [1]): 63000 nM |
| COc1ccc(C2=NCC(c3cc(OC)c(OC)c(OC)c3)O2)cc1N (centres unmarked) [Example 39, 2-(3-amino-4-methoxyphenyl)-5-(3,4,5-trimethoxyphenyl)-Δ2,3-oxazoline] |  |  | IC50 (NCI-H460 cells; Homo sapiens, values in nM): 68 nM; IC50 (HCT-15 cells; Homo sapiens, values in nM): 33 nM |
| COc1cc(C2CN=C(c3ccc(C)c(N)c3)O2)cc(OC)c1OC (centres unmarked) [Example 40, 2-(3-amino-4-methyphenyl)-5-(3,4,5-trimethoxyphenyl)-Δ2,3-oxazoline] |  |  | IC50 (NCI-H460 cells; Homo sapiens, values in nM): 82 nM; IC50 (HCT-15 cells; Homo sapiens, values in nM): 62 nM |
| COc1ccc(C2=NCC(c3cc(OC)c(OC)c(OC)c3)O2)cc1NC(=O)C(C)NC(=O)C(C)N (centres unmarked) [Example 41] |  |  | IC50 (NCI-H460 cells; values in nM): 590 nM; IC50 (HCT-15 cells; values in nM): 520 nM |
| COc1ccc(C2=NCC(c3cc(OC)c(OC)c(OC)c3)O2)cc1NC(=O)[C@@H](N)CO (some centres unmarked) [Example 44] |  |  | IC50 (NCI-H460 cells; [1]): 3800 nM; IC50 (HCT-15 cells; [1]): 6600 nM |
| COc1cc(C2CN=C(c3ccn(C)c(=O)c3)O2)cc(OC)c1OC (centres unmarked) [Example 46, 2-(1-methyl-1H-pyridin-2-on-4-yl)-5-(3,4,5-trimethoxyphenyl)-Δ2,3-oxazoline] |  |  | IC50 (NCI-H460 cells; Homo sapiens, values in nM): 470 nM; IC50 (HCT-15 cells; Homo sapiens, values in nM): 440 nM |
| COc1cc(C2CN=C(c3ccc4[nH]cc(C(=O)C(F)(F)F)c4c3)O2)cc(OC)c1OC (centres unmarked) [Example 76, 2-(3-trifluoroacetyl-5-indolyl)-5-(3,4,5-trimethoxyphenl)-Δ2,3-oxazoline] |  |  | IC50 (HCT-15 cells; [1]): 1300 nM |
